Patent US10449258B2, “Antibody drug conjugate, intermediate, preparation method, pharmaceutical composition and uses thereof” (XDCEXPLORER (SHANGHAI) CO., LTD., priority 2015, dated 2019)
Like-named read-outs stand apart in the source and are kept apart here.

How the values were obtained:
[1] = test system: Her2-positive human BT474 breast tumor cells; experiment: Cytotoxicity assay (growth inhibition, CellTiter-Glo) on BT474
Description: (§1) Her2-positive human BT474 breast tumor cells (BT474 for short), Her2 low expression human MCF-7 breast tumor cells (MCF-7 for short), and human breast tumor cell strain MCF7-Her2 with stable-transfected Her2 outside MCF-7 (MCF-7-Her2 for short) were used (they were prepared by the methods disclosed in the literatures for preparing recombinant cells: Teemu T. Junttila, et al., Breast. Cancer Res. Treat., 2011, 128, 347 and Jeffrey J. Wallin et al., Clin. Cancer Res., 2012, 18, 3901, the contents of which are incorporated herein by reference in their entireties). The growth inhibition of tumor cells by T-CE-040 and T-CE-063 antibody drug conjugates were evaluated. BT474, MCF7-Her2 and MCF-7 were digested with 0.25% (v/v) trypsin and the cells were stripped and then suspended in 100 μL complete medium. 2,000 cells were inoculated in a 96-well plate and cultured, grew adherently overnight at 37° C., then 100 μL T-CE-040 and T-CE-063 antibody drug conjugates with different concentration gradients and the complete medium were added. After 120 hours, relative cell proliferation analysis was performed by adding 50 μL CellTiter-Glo® […] Cell Activation Reagent (CellTiter-GloB Luminescent, Promega).

[2] = test system: Her2 low expression human MCF-7 breast tumor cells; experiment: Cytotoxicity assay (growth inhibition, CellTiter-Glo) on MCF-7
Description: as §1

[3] = test system: human breast tumor cell strain MCF7-Her2 with stable-transfected Her2; experiment: Cytotoxicity assay (growth inhibition, CellTiter-Glo) on MCF7-Her2
Description: as §1

[4] = Homo sapiens, BT-474, 120 h, read-out: Cytotoxicity assay IC50 BT474, BT474 cells, 120 hours, CellTiter-Glo
[5] = Homo sapiens, MCF7, 120 h, read-out: Cytotoxicity assay IC50 MCF7, MCF-7 cells, 120 hours, CellTiter-Glo
[6] = Homo sapiens, 120 h, read-out: Cytotoxicity assay IC50 MCF-Her2, MCF7-Her2 cells, 120 hours, CellTiter-Glo
[7] = read-out: Cytotoxicity assay IC50 BT474, BT474 cells, 120 hours, CellTiter-Glo
[8] = read-out: Cytotoxicity assay IC50 MCF7, MCF-7 cells, 120 hours, CellTiter-Glo
[9] = read-out: Cytotoxicity assay IC50 MCF-Her2, MCF7-Her2 cells, 120 hours, CellTiter-Glo

Row | Structure (SMILES) | IC50 [1, 4] | IC50 [2, 5] | IC50 [3, 6] | IC50 [1, 7] | IC50 [2, 8] | IC50 [3, 9]
1 | COc1cc2cc(c1Cl)N(C)C(=O)C[C@H](OC(=O)[C@H](C)N(C)[C@@H](CCSSC)C(F)(F)F)[C@]1(C)O[C@H]1[C@H](C)[C@@H]1C[C@@](O)(NC(=O)O1)[C@H](OC)/C=C/C=C(\C)C2 (single isomer, unassigned) [CE-029] | 0.85 nM | 2 nM | 1.7 nM |  |  | 
2 | COc1cc2cc(c1Cl)N(C)C(=O)C[C@H](OC(=O)[C@H](C)N(C)[C@H](CCSSC)C(F)(F)F)[C@]1(C)O[C@H]1[C@H](C)[C@@H]1C[C@@](O)(NC(=O)O1)[C@H](OC)/C=C/C=C(\C)C2 (single isomer, unassigned) [CE-030] | 2.4 nM | 6.2 nM | 3.2 nM |  |  | 
3 | COc1cc2cc(c1Cl)N(C)C(=O)C[C@H](OC(=O)C(COCCCSSC)OC)[C@]1(C)O[C@H]1[C@H](C)C1C[C@@](O)(NC(=O)O1)[C@H](OC)/C=C/C=C(\C)C2 (single isomer, unassigned) [CE-054-1] | 10 nM | 7 nM | 3.4 nM |  |  | 
4 | COc1cc2cc(c1Cl)N(C)C(=O)C[C@H](OC(=O)C(COCCCSSC)OC)[C@]1(C)O[C@H]1[C@H](C)C1C[C@@](O)(NC(=O)O1)[C@H](OC)/C=C/C=C(\C)C2 (single isomer, unassigned) [CE-055-1] |  |  |  | 8 nM | 6 nM | 3 nM
5 | COc1cc2cc(c1Cl)N(C)C(=O)C[C@H](OC(=O)[C@H](C)N(C)C(CCSSC)C(F)(F)F)[C@]1(C)O[C@H]1[C@H](C)[C@@H]1C[C@@](O)(NC(=O)O1)[C@H](OC)/C=C/C=C(\C)C2 (stereo partly drawn) [CE-011] | 1.2 nM | 2.4 nM | 1.5 nM |  |  | 
6 | COCC(C)(CCC(=O)N(C)[C@H](C)C(=O)OC1CC(=O)N(C)c2cc(cc(OC)c2Cl)C/C(C)=C/C=C/[C@@H](OC)[C@@]2(O)C[C@H](OC(=O)N2)[C@@H](C)[C@@H]2O[C@@]12C)SSC (stereo partly drawn) [CE-012] | 16.4 nM | 65.8 nM | 133 nM |  |  | 
7 | COCC(C)(CCC(=O)N(C)[C@@H](C)C(=O)O[C@H]1CC(=O)N(C)c2cc(cc(OC)c2Cl)C/C(C)=C/C=C/[C@@H](OC)[C@@]2(O)C[C@H](OC(=O)N2)[C@@H](C)[C@@H]2O[C@@]12C)SSC (stereo partly drawn) [CE-013] |  | 4.3 nM | 5.9 nM | 21 nM |  | 
8 | COCC(C)(CCC(=O)N(C)[C@H](C)C(=O)OC1CC(=O)N(C)c2cc(cc(OC)c2Cl)C/C(C)=C/C=C/[C@@H](OC)[C@@]2(O)C[C@H](OC(=O)N2)[C@@H](C)[C@@H]2O[C@@]12C)SSC (stereo partly drawn) [CE-014] | 19.6 nM | 127 nM | 68.8 nM |  |  | 
9 | COCC(C)(CCC(=O)N(C)[C@@H](C)C(=O)O[C@H]1CC(=O)N(C)c2cc(cc(OC)c2Cl)C/C(C)=C/C=C/[C@@H](OC)[C@@]2(O)C[C@H](OC(=O)N2)[C@@H](C)[C@@H]2O[C@@]12C)SSC (stereo partly drawn) [CE-015] |  |  |  | 6.3 nM | 3 nM | 7.1 nM
10 | COCC(CCC(=O)N(C)[C@H](C)C(=O)OC1CC(=O)N(C)c2cc(cc(OC)c2Cl)C/C(C)=C/C=C/[C@@H](OC)[C@@]2(O)C[C@H](OC(=O)N2)[C@@H](C)[C@@H]2O[C@@]12C)(COC)SSC (stereo partly drawn) [CE-016] | 23.4 nM | 67.7 nM | 42.7 nM |  |  | 
11 | COCC(CCC(=O)N(C)[C@@H](C)C(=O)OC1CC(=O)N(C)c2cc(cc(OC)c2Cl)C/C(C)=C/C=C/[C@@H](OC)[C@@]2(O)C[C@H](OC(=O)N2)[C@@H](C)[C@@H]2O[C@@]12C)(COC)SSC (stereo partly drawn) [CE-017] | 14 nM | 8.9 nM | 3.1 nM |  |  | 
12 | COc1cc2cc(c1Cl)N(C)C(=O)CC(OC(=O)[C@@H](C)N(C)C(=O)CCC(C)(C#N)SSC)[C@]1(C)O[C@H]1[C@H](C)[C@@H]1C[C@@](O)(NC(=O)O1)[C@H](OC)/C=C/C=C(\C)C2 (stereo partly drawn) [CE-018] | 41.7 nM | 1570 nM | 399 nM |  |  | 
13 | COc1cc2cc(c1Cl)N(C)C(=O)C[C@H](OC(=O)[C@H](C)N(C)C(=O)CCC(C)(C#N)SSC)[C@]1(C)O[C@H]1[C@H](C)[C@@H]1C[C@@](O)(NC(=O)O1)[C@H](OC)/C=C/C=C(\C)C2 (stereo partly drawn) [CE-019] | 64 nM | 150 nM | 57 nM |  |  | 
14 | COc1cc2cc(c1Cl)N(C)C(=O)CC(OC(=O)[C@@H](C)N(C)C(=O)CCC(SSC)C(C)C)[C@]1(C)O[C@H]1[C@H](C)[C@@H]1C[C@@](O)(NC(=O)O1)[C@H](OC)/C=C/C=C(\C)C2 (stereo partly drawn) [CE-021] | 63.9 nM | 98.6 nM | 92.9 nM |  |  | 
15 | COc1cc2cc(c1Cl)N(C)C(=O)CC(OC(=O)[C@H](C)N(C)C(=O)CCC(SSC)C(C)C)[C@]1(C)O[C@H]1[C@H](C)[C@@H]1C[C@@](O)(NC(=O)O1)[C@H](OC)/C=C/C=C(\C)C2 (stereo partly drawn) [CE-022] | 13 nM | 10 nM | 6 nM |  |  | 
16 | COCC(S)(CCC(=O)N(C)[C@H](C)C(=O)OC1CC(=O)N(C)c2cc(cc(OC)c2Cl)C/C(C)=C/C=C/[C@@H](OC)[C@@]2(O)C[C@H](OC(=O)N2)[C@@H](C)[C@@H]2O[C@@]12C)COC (stereo partly drawn) [CE-023] | 308 nM | 460 nM | 352 nM |  |  | 
17 | COCC(S)(CCC(=O)N(C)[C@@H](C)C(=O)OC1CC(=O)N(C)c2cc(cc(OC)c2Cl)C/C(C)=C/C=C/[C@@H](OC)[C@@]2(O)C[C@H](OC(=O)N2)[C@@H](C)[C@@H]2O[C@@]12C)COC (stereo partly drawn) [CE-024] | 20.1 nM | 23.1 nM | 50 nM |  |  | 
18 | COc1cc2cc(c1Cl)N(C)C(=O)C[C@H](OC(=O)[C@H](C)OCCSSC)[C@]1(C)O[C@H]1[C@H](C)[C@@H]1C[C@@](O)(NC(=O)O1)[C@H](OC)/C=C/C=C(\C)C2 [CE-026] | 14 nM | 41 nM | 17 nM |  |  | 
19 | COc1cc2cc(c1Cl)N(C)C(=O)C[C@H](OC(=O)[C@H](C)OCCCSSC)[C@]1(C)O[C@H]1[C@H](C)[C@@H]1C[C@@](O)(NC(=O)O1)[C@H](OC)/C=C/C=C(\C)C2 [CE-027] | 15 nM | 39 nM | 23 nM |  |  | 
20 | COc1cc2cc(c1Cl)N(C)C(=O)C[C@H](OC(=O)[C@H](C)OCCOCCSSC)[C@]1(C)O[C@H]1[C@H](C)[C@@H]1C[C@@](O)(NC(=O)O1)[C@H](OC)/C=C/C=C(\C)C2 [CE-028] | 12 nM | 41 nM | 33 nM |  |  | 
21 | COc1cc2cc(c1Cl)N(C)C(=O)C[C@H](OC(=O)[C@H]1CC[C@H](CSSC)CC1)[C@]1(C)O[C@H]1[C@H](C)[C@@H]1C[C@@](O)(NC(=O)O1)[C@H](OC)/C=C/C=C(\C)C2 [CE-031] | 7.5 nM | 15 nM | 9.2 nM |  |  | 
22 | COc1cc2cc(c1Cl)N(C)C(=O)C[C@H](OC(=O)[C@H](C)OCCOCCSC1CC(=O)N(C[C@H]3CC[C@H](C(=O)ON4C(=O)CCC4=O)CC3)C1=O)[C@]1(C)O[C@H]1[C@H](C)C1C[C@@](O)(NC(=O)O1)[C@H](OC)/C=C/C=C(\C)C2 (stereo partly drawn) [CE-034] | 19.9 nM | 14.1 nM | 14.2 nM |  |  | 
23 | COc1cc2cc(c1Cl)N(C)C(=O)C[C@H](OC(=O)[C@H](C)OCCCSC1CC(=O)N(C[C@H]3CC[C@H](C(=O)ON4C(=O)CCC4=O)CC3)C1=O)[C@]1(C)O[C@H]1[C@H](C)C1C[C@@](O)(NC(=O)O1)[C@H](OC)/C=C/C=C(\C)C2 (stereo partly drawn) [CE-035] |  |  |  | 26.8 nM | 25.8 nM | 15.1 nM
24 | COc1cc2cc(c1Cl)N(C)C(=O)C[C@H](OC(=O)[C@H]1CC[C@H](CSC3CC(=O)N(C[C@H]4CC[C@H](C(=O)ON5C(=O)CCC5=O)CC4)C3=O)CC1)[C@]1(C)O[C@H]1[C@H](C)C1C[C@@](O)(NC(=O)O1)[C@H](OC)/C=C/C=C(\C)C2 (stereo partly drawn) [CE-036] | 8.05 nM | 13.1 nM | 6.9 nM |  |  | 
